Data taken from patent publication US8124582B2, “Treatment of diabetes” (FibroGen, Inc., priority 2002, dated 2012).

Key:
[1] = Blood glucose levels after 14 days oral dosing; format: in vivo, male Sprague Dawley rats; conditions: rats, 20, 60, 100, or 200 mg/kg oral gavage once daily for 14 days, overnight fast, day 15; FIG. 4
Protocol: The effect of compound administration on blood glucose levels was examined as follows. Fifty male Sprague Dawley rats (6-7 weeks old) obtained from Simonsen, Inc. were dosed with 0.5% CMC (Sigma-Aldrich) or compound B at 20, 60, 100, or 200 mg/kg body weight by oral gavage once daily for 14 consecutive days. Animals were monitored for changes in body weight and signs of overt toxicity and mortality. […] One sample of approximately 1 ml was collected into tubes containing EDTA for hematological analysis, and a second sample of approximately 1 ml was collected into a tube with no anticoagulant for serum chemistry analysis. Blood sample analyses were performed by IDEXX (West Sacramento, Calif.).

[2] = Body weight gain, organ weight and visceral fat after 14 days oral dosing; format: in vivo, male Sprague Dawley rats
Protocol: The effect of compounds of the present invention on weight loss and fat stores in animals was examined as follows. Fifty male Sprague Dawley rats (6-7 weeks old) obtained from Simonsen, Inc. were dosed with 0.5% CMC (Sigma-Aldrich) or compound B at 20, 60, 100, or 200 mg/kg body weight by oral gavage once daily for 14 consecutive days. Animals were monitored for changes in body weight and signs of overt toxicity and mortality. On day 15, following an overnight fast with water available ad libitum, animals were anesthetized with isoflurane. One whole blood sample of approximately 1 ml was collected into tubes containing EDTA for hematological analysis, and a second sample of approximately 1 ml was collected into a tube with no anticoagulant for serum chemistry analysis. Blood sample analyses were performed by IDEXX (West Sacramento, Calif.). Following blood collection, the diaphragm was incised and the animals were sacrificed. Macroscopic observations were recorded for each animal and the liver, kidneys, heart, spleen, lungs, stomach, small intestines, and large intestines were collected for histological assessment.

HIF-1α = HIF-1α stabilization in cells, TRANSAM HIF-1 ELISA of nuclear fractions; format: cell-based, Human; conditions: epithelial cells (293A) and hepatocellular carcinoma (Hep3B); FIG. 12B
Protocol: Stabilization of HIFα using compounds and methods of the present invention was examined as follows. Human cells derived from adenovirus-transformed fetal kidney epithelium (293A), cervical epithelial adenocarcinoma (HeLa), hepatocellular carcinoma (Hep3B), squamous carcinoma (SSC-25), and lung fibroblast (HLF) (see, e.g., American Type Culture Collection, Manassas Va.; and Qbiogene, Carlsbad Calif.) were separately seeded into 100 mm culture dishes and grown at 37° C., 20% O2, 10% CO2 in media as follows: HeLa cells in Dulbecco's Modification of Eagle's Medium (DMEM), 2% fetal bovine serum (FBS); HLF cells in DMEM, 10%FBS; 293A cells in DMEM, 5%FBS; and Hep3B cells in Minimal Essential Medium (MEM), Earle's BSS (Mediatech Inc., Herndon Va.), 2 mM L-glutamine, 0.1 mM non-essential amino acids, 1 mM sodium pyruvate, 10% FBS. When cell layers reached confluence, the media was replaced with OPTI-MEM media (Invitrogen Life Technologies, Carlsbad Calif.) and cell layers were incubated for approximately 24 hours in 20% O2, 10% CO2 at 37° C. Compound of the invention (one of compounds B, F, G, and H) or DMSO (0.5 to 1%) was then added to existing medium, and incubation was continued overnight.
Alternatively, nuclear fractions were prepared using a Nuclear Extract kit (Active Motif, Carlsbad Calif.) and were analyzed for HIF-1α using a TRANSAM HIF-1 ELISA kit (Active Motif) according to the manufacturer's instructions.

## O=C(O)CNC(=O)c1nc(Cl)c2ccccc2c1O [compound B, [(1-Chloro4-hydroxy-isoquinoline-3-carbonyl)-amino]-acetic acid]
[1]
  blood glucose levels: dose-dependent decrease
[2]; rats, 100 mg/kg, p=0.036, one-way ANOVA/Tukey's test
  relative heart weight, expressed as a fraction of the total body weight, compared to control: significantly increased
[2]; rats, 20, 60, 100, or 200 mg/kg oral gavage once daily for 14 days, FIG. 7A
  weight gain: dose-dependent retardation
[2]; rats, 20 to 200 mg/kg oral gavage 14 days, FIG. 8
  visceral fat: dose-dependent reduction
[2]; rats, higher doses of compound, FIG. 8 bottom panel
  visceral fat pads at higher doses: complete absence of fat pads
[2]; rats, oral gavage 14 days, FIG. 7B
  absolute heart weight compared to control: no statistically significant difference
HIF-1α
  HIFα stabilization and accumulation (ELISA) compared to vehicle-treated control cells: stabilization and accumulation of HIFα
